Measurements from US20150335670A1, “Medical applications of Notoginsenoside Fc” (SHANGHAI UNIVERSITY OF TRADITIONAL CHINESE MEDICINE, priority 2013, published 2015).
“And” between values parts separate entries of the source, which are not always exact repeats. Equal values may be shown once.

Key:
[1] = test system: acute myocardial infarction in rats; experiment: Acute myocardial infarction in rats (coronary ligation, TTC staining, pathohistology); assay type: in vivo, rat; conditions: for myocardial infarction area (ischemic area %): individual animals
Procedure: Model preparing method: 30 SD rats (Shanghai University of Traditional Chinese Medicine Experimental Animal Center), weight: 320-370 g; rat was treated with anesthesia with pentobarbital (35 mg/kg), supine fixing; neck midline incision, separating trachea, tracheotomy, inserting a breathing tube, adjusting a frequency and tidal volume of a ventilator; median sternotomy thoracotomy (3-4 intercostal), using thin surgical needle and line six for starting at a left atrial appendage, and ligation at pulmonary cone. Successful standard thereof was that: observing with naked eyes (anterior descending artery blood supply area was darken or pale). Chest was quickly closed. For the sham group, the line passed the left anterior descending coronary artery bypass without ligation.
TTC staining: rat hearts were frozen at −20° C., and were taken out after being hard; the rat hearts were left-coronally excised into 5-6 pieces at a thickness of 3-4 mm. Then the rat hearts were placed in 0.5% TTC solution, and incubated at 37° C. for 15 min. The pieces were taken out and fixed in 4% formaldehyde solution.
The hearts were cut according to two different colors and drained water with filter paper before weighing. Calculation formula was as follows: ischemic area (%)=[…]×100%. Meanwhile, the hearts were partly acquired for pathological analysis.
Control group: six rats, administered with 0.9% physiological saline (NS) after surgery.
Sham operation group: six rats, opening chest and passing line without ligation.
Positive medicine group: six rats, administered with ticagrelor (4.1 mg/kg) after surgery.
4 mg/kg Fc treatment group: six rats, administered with Fc (4 mg/kg) after surgery.
12 mg/kg Fc treatment group: six rats, administered with Fc (12 mg/kg) after surgery.

platelet thrombus = experiment: Whole animal thrombogenesis assay (extracorporeal circulation model, thrombus weight); assay type: in vivo, rat; conditions: rats, 8.1 mg/kg intravenous, extracorporeal circulation started 5 min later, 15 min, blank control 37.2 mg
Source text: 2.1.2 Whole animal thrombogenesis assay: when arterial blood platelets contact a rough surface of a wire, the platelets are adhered to the wire and form platelet thrombus on a surface thereof. When platelet adhesion and aggregation function is suppressed, thrombus is light. Therefore, thrombus weight can measure platelet adhesion and aggregation functions.
Referring to FIG. 3, effect of the notoginsenoside Fc on the platelet aggregation function is illustrated. […] In the extracorporeal circulation model, the rats were intravenous administered with Fc at dose of 8.1 mg/kg. Five minutes later, the extracorporeal circulation was initiated and stopped after fifteen minutes. The thrombus formed on the thread was weighed. Significant difference was found between the blank control group and the Fc treatment group (**P<0.01).

rat plasma = experiment: Blood coagulation index APTT in rat plasma; assay type: biochemical
Source text: (§1) 2.1.3.2 Four indexes of blood coagulation: i) Prothrombin time (PT) mainly reflects extrinsic coagulation conditions. Its value is increased when the levels of coagulation factor IX and XI in plasma are reduced, which usually occurs in hemophilia, hemophilia B and factor XI deficiency patients. Conversely, the reduction of it is seen in hypercoagulable state, when the procoagulant substances get into blood and the activity of coagulation factors is increased. ii) Activated partial thromboplastin time (APTT) reflects mainly intrinsic coagulation conditions. Its value is changed under the similar condition as PT. iii) Thrombin time (TT) mainly reflects the abnormality in the conversion of fibrinogen into fibrin. Its value is elevated in DIC hyperfibrinolysis period, afibrinogenemia and hemoglobin hyperlipidemia, and when degradation products (FDPs) of blood fibrin are increased. iv) Fibrinogen (Fibrinogen, FIB) mainly reflects the content of fibrinogen in plasma. Generally, its concentration is elevated in acute myocardial infarction. The reduction of it is observed in DIC dissolution of low consumption of coagulation, primary fibrinolysis, severe hepatitis, hepatic cirrhosis.

standard human plasma = experiment: Four indexes of blood coagulation (APTT, PT), human; assay type: biochemical; conditions: 80 μg/ml
Source text: Notoginsenoside Fc (molecular weight 1211.38, HPLC purity≧99%, from Institute of Chinese Materia Medica), clopidogrel (molecular weight 419.90, HPLC purity≧98%, from National Institutes for Drug Control), standard human plasma, reagents for measurement of four indexes of blood coagulation (from Siemens, Germany), and adenosine diphosphate (ADP) (from Sigma, USA).
as §1, with “Generally, its concentration is elevated in acute myocardial infarction. The reduction of it is observed in DIC dissolution of low consumption of coagulation, primary fibrinolysis, severe hepatitis, hepatic cirrhosis.” left out

platelet = experiment: In vitro platelet aggregation assay (ADP-induced, nephelometry); assay type: cell-based, rat
Procedure: 2.1.1 In vitro platelet aggregation assay: blood samples were placed in a centrifuge tube pre-coated with sodium citrate and centrifuged at 100 g for 5 min. The supernatant was collected and designated as rich platelet (PRP). After addition of prostacyclin (2 μg/ml), PRP was centrifuged at 700 g for 5 min and washed twice with 0.9% saline. The washed platelets were re-suspended in Tyrode buffer and diluted at a density of 4×10^8 cells/ml for further utilization. Platelet aggregation assay was provided according to a nephelometry method: platelet plasma was placed in cuvette; after addition of a inducing agent (ADP: 5-adenosine diphosphate disodium salt: 1×10^−4 mol/L), the platelet plasma was stirred with magnetic particles, wherein platelet was gradually aggregated, plasma turbidity was reduced, and transmittance was increased. Changes were recorded for drawing a dynamic curve of platelet aggregation. Aggregation rate and transmittance for PRP were regarded as 0; aggregation rate and transmittance of suspension were regarded as 100%. A platelet aggregation instrument was used for automatic measurement, recording, and drawing the platelet aggregation curve. For judging inhibiting or promoting of aggregation, it was mainly depending on whether synergy or antagonism happened with the inducing agent; wherein synergy was to promote platelet aggregation, antagonism was to inhibit platelet aggregation.
Blank control group: 0.9% physiological saline (NS).
Model group: adenosine diphosphate (ADP) (10 mM).
Positive control group: clopidogrel (5 mM).
Treatment groups: six rats for each group, Fc dissolved in double distilled water (prepared with different concentrations).

rat tail bleeding = experiment: Bleeding time assay (rat tail transection); assay type: in vivo; conditions: rats; vs control
Source text: 2.1.3.1 Bleeding time assay: rat tail was transected 0.5 cm from the tip to induce bleeding. And the bleeding time was defined as the time from the start of transection to bleeding cessation. The time at which the flow of blood ceased for 30 s was considered as bleeding cessation.

SMILES: CC(C)=CCC[C@](C)(O[C@@H]1O[C@H](CO[C@@H]2OC[C@@H](O)[C@H](O)[C@H]2O)[C@@H](O)[C@H](O)[C@H]1O)[C@H]1CC[C@]2(C)[C@@H]1[C@H](O)C[C@@H]1[C@@]3(C)CC[C@H](O[C@@H]4O[C@H](CO)[C@@H](O)[C@H](O)[C@H]4O[C@@H]4O[C@H](CO)[C@@H](O)[C@H](O)[C@H]4O[C@@H]4OC[C@@H](O)[C@H](O)[C@H]4O)C(C)(C)[C@@H]3CC[C@]12C [Notoginsenoside Fc, notoginsenoside Fc]
- myocardial infarction area (ischemic area %) ([1]; Fc 4 mg/kg after surgery): 17.27% and 22.31% and 22.8% and 19.05% and 19.74% and 16.88%
- pathohistology of myocardium ([1]; Fc 4 mg/kg, FIG. 12): arrangement of most of the myocardial cells was normal
- myocardial infarction area (ischemic area %) ([1]; Fc 12 mg/kg after surgery): reduced more myocardial infarction than the positive medicine group and 5.843% and 3.482% and 5.463% and 4.892% and 5.19% and 4.595%
- pathohistology of myocardium ([1]; Fc 12 mg/kg, FIG. 13): arrangement of the myocardial cells was almost normal
- percentage of the infarcted area ([1]; Fc 4 and 12 mg/kg, FIG. 8, vs control): significantly reduced
- weight of thrombus (wet weight) (platelet thrombus; listed as FC): 28.2 mg
- weight of thrombus (wet weight) (platelet thrombus; listed as Fc): actively reduce thrombogenesis
- APTT Time (rat plasma; 5 μg/ml): 19.20 s
- APTT Time (rat plasma; 5 μg/ml, listed as Fc): 19 s
- APTT Time (rat plasma; 10 μg/ml): 20.31 s
- APTT Time (rat plasma; 20 μg/ml): 21.61 s
- APTT Time (rat plasma; 80 μg/ml): 28.25 s
- APTT Time (rat plasma; 160 μg/ml): 32.65 s
- APTT Time (rat plasma; 160 μg/ml, listed as Fc): 32 s
- difference in APTT (rat plasma; from 5 μg/ml to 160 μg/ml): 13 s
- APTT (standard human plasma; blank control 91 s): 126 s
- PT (standard human plasma; vs blank control): longer
- IC50 (platelet; ADP-induced, 0.1-40 μM, read-out: IC50 (inhibition of platelet aggregation)): 13.5 µM
- platelet aggregation rate (platelet; ADP-induced, Fc 200 μM): 25.8%
- aggregation rate (%) (platelet; ADP-induced, dose 0.1 μM, listed as Fc): 47.9%
- aggregation rate (%) (platelet; ADP-induced, dose 0.1 μM, listed as notoginsenoside Fc): 47.98%
- aggregation rate (%) (platelet; ADP-induced, dose 10 μM): 42.83%
- aggregation rate (%) (platelet; ADP-induced, dose 20 μM): 32.33%
- aggregation rate (%) (platelet; ADP-induced, dose 30 μM): 31.60%
- aggregation rate (%) (platelet; ADP-induced, dose 40 μM, listed as Fc): 28.1%
- aggregation rate (%) (platelet; ADP-induced, dose 40 μM, listed as notoginsenoside Fc): 28.13%
- decreasing amplitude of platelet aggregation rate (platelet; from 0.1 μM to 40 μM): up to 19.8%
- rat tail bleeding time (rat tail bleeding): significantly prolonged

SMILES: CCCSc1nc(N[C@@H]2C[C@H]2c2ccc(F)c(F)c2)c2nnn([C@@H]3C[C@H](OCCO)[C@@H](O)[C@H]3O)c2n1 [ticagrelor, reference compound]
- myocardial infarction area (ischemic area %) ([1]; ticagrelor 4.1 mg/kg after surgery): 15.15% and 17% and 13.85% and 14.24% and 16.69% and 16.94%
- pathohistology of myocardium ([1]; ticagrelor 4.1 mg/kg, FIG. 11): arrangement of myocardial cells was disordered in local area
